# “Also recorded” adds a separate entry of the source.
# Key:
# [1] = test system: Zymosan-induced production of IL-12p40 in monocyte-derived dendritic cells; assay: Monocyte derived DC (MoDC) assay, Zymosan-induced IL-12p40 (Luminex/ELISA); format: cell-based, human
# Text: (§1) Monocyte derived DC (MoDC) were differentiated from healthy human donor derived CD14+ monocytes. Commercially available freshly prepared Leukopaks were obtained from healthy blood donor and kept refrigerated on ice before spin centrifuged and the pelleted cells are rinsed and resuspended with MACS buffer (Miltenyi Biotec). Next, CD14+ monocytes were purified using MultiMACS™ Cell24 Separator-Plus instrumentation and reagents according to the manufacturer (Miltenyi Biotec) instructions. The resulting purified CD14^+ cell fraction was washed, enumerated, and subsequently cryopreserved for later use. At the experiment first day cryopreserved CD14′ cells were thawed, rinsed with culture media, and then resuspended in culture media principally composed of RPMI (Invitrogen) supplemented with 10% v/v heat inactivated FBS. For generation of MoDC, these CD14^+ cells were enumerated and seeded into 75 cm^2 tissue culture flasks in 30 mL of culture media supplemented with GM-CSF (40-100 ng/mL) and IL-4 (25 ng/mL). Every other day, half of the culture media was replaced with fresh media (containing the same cytokine supplementation) and after 6-7 days of culture, fully differentiated and matured MoDC were obtained as confirmed by conventional Immuno-phenotype markers (levels of expression or absence of surface CD80, CD83, CD86, CD209, HLA-DR, CD14 & CD64) that were verified by flow-cytometry. Fully differentiated (mature) MoDCs, were seeded into 96 flat-well plates and incubated with a various concentration of the compound described herein, or with control solution (DMSO), or with the pharmacologic inhibitors Cyclosporin-A (CsA) and BAY 61-3606 (which is a known inhibitor of Syk kinase) for 6 hours. Next, the MoDC culture well were added with Dectin-1(CLEC7a1)-ligand (Zymosan at 5 μg/mL), or the Toll-like receptor agonist R848, and further incubated for 18-20 hours. After incubation concluded, culture supernatants were collected, and the levels of inflammatory cytokines and chemokines was measured in a triplicate setting for each condition by Luminex® multiplex assay (FIG. 2) or by ELISA (FIG. 3).
# Dectin-1b = target: T1, Dectin-1b (Homo sapiens, UniProt Q9BXN2); assay: Dectin-1 assay, HEK-Blue Dectin-1b SEAP reporter cells stimulated with beta-glucan peptide (BGP); format: cell-based; conditions: for Activity: HEK-Blue Dectin-1b cells, compounds at 1, 10 or 30 μM for 6 hours, then BGP 30 μg/mL 16-18 hours, SEAP adjusted by cell viability
# T1 construct: host or cells: HEK-Blue Dectin-1b reporter cells (HEK293-derived)
# T1 sequence (Q9BXN2 1-201 isoform Q9BXN2-2): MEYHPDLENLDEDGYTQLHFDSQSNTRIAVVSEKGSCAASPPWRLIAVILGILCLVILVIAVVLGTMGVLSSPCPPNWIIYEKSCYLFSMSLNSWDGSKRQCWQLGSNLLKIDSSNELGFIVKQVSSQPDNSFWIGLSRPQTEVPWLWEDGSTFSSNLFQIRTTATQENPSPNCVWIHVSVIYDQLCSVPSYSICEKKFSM
# Method: Compounds described herein are added to mammalian cells for bioactivity assessment. The HEK-Blue Dectin-1b cells line (InVivoGen) releases a reporter protein (secreted embryonic alkaline phosphatase, SEAP) to the culture supernatant in response to Dectin-1 activation. HEK-Blue reporter cells were grown in DMEM culture media with 10% decomplemented fetal calf serum (InvivoGen, 1% Pen/Strep antibiotic (InvivoGen), 0.2% Normocin antibiotic (InvivoGen). On the day prior to the assay, cells were seeded in a 96 flat-bottom well plate at 50,000 cells/well and further incubated for 20 hours. On the day of the assay cells were incubated with 1 μM, 10 μM or 30 μM of the compounds described herein or with 1 μM of the SYKi IV Dectin-1b Inhibitor (Millipore) or with DMSO (vehicle control) for 6 hours, followed by the addition of beta-glucan peptide (BGP, a Dectin-1 ligand at 30 μg/mL) and incubation for 16-18 hours. After incubation was concluded, the cultures supernatants were collected and Dectin-1 related activity was assessed by measurement of the SEAP-reporter protein presence, using Quanti-Blue assay (Invivogen) and these values were adjusted by the Cell Viability levels that was assessed using the Cell-Titer-Glo2 Reagent (Promega).
# Results represent cell number adjusted SEAP levels in a triplicate setting for each condition and cell numbers and viability corrections reflected less than 5% corrections. See, e.g., FIG. 1 for compound A-3.
# [2] = Compound interconversion monitored by 1H-NMR in neutral aqueous buffer; format: physicochemical; conditions: 37° C. in the neutral aqueous buffer
# Method: This examples provide the kinetics of compounds A-2 and A-3. More specifically, A-6 is a mixture of compounds A-2 and A-3 and interconvert in solutions.
# In this example, A-6 was combined with […] of Na3PO4, DCl, and D2O at a pH of 7-7.5. This solution was then monitored using 1H-NMR at 37° C.
# Interconversion between compounds A-2 and A-3 was seen and monitored for 5 days. See, Table 1.
# [3] = test system: LPS-induced IRF reporter activity; assay: IRF assay, THP-1 dual reporter cell line (Lucia luciferase) stimulated with LPS; format: cell-based; conditions: for inhibition of LPS-induced IRF reporter activity: THP-1 dual reporter cells, LPS 25 ng/mL, compounds at 1 μM or 10 μM
# Method: Compounds described herein are added to mammalian cells for bioactivity assessment. The THP-1 dual reporter cell line (InVivoGen) secretes a reporter protein (Lucia luciferase or LUC) in response to activation by the pro-inflammatory bacterial component lipopolysaccharide (LPS). THP-1 dual reporter cells were grown in RPMI 1640 culture medium with 2 mM L-glutamine, 25 mM HEPES, 10% heat-inactivated fetal bovine serum, 100 µg/ml Normocin antibiotic (InvivoGen), Pen-Strep antibiotic (100 U/ml-100 […], InvivoGen). On the day of the assay, cells were seeded in a 96 flat-bottom well plate at 50,000 cells/well and incubated for 2 hours. Cells were then incubated with 1 μM or 10 μM of the compounds described herein or with 1 μM of KK-16 (Selleck), a potent inhibitor of IκB kinases (IKKs) or with DMSO (vehicle control) for 2 hours, followed by the addition of LPS at 25 ng/mL and incubation for 24 hours. After incubation was concluded, the cultures supernatants were collected and IRF related activity was assessed by measurement of the Lucia luciferase, using Quanti-Luc assay (InvivoGen) and these values were adjusted by the Cell Viability levels that was assessed using the Cell-Titer-Glo2 Reagent (Promega).
# [4] = test system: R848-stimulated monocyte-derived dendritic cells; assay: MoDC assay, R848-stimulated pro-inflammatory cytokines; format: cell-based, human; conditions: for Gro-α / IL-6 / IL-12p70 / IL-23 / IP-10 / MCP-1 / Mip-1α / TNFα: healthy human donor 14; for inhibition of pro-inflammatory cytokines (overall): healthy human donor 14 (FIGS. 10A-10H)
# Text: as §1
# [5] = test system: LPS-stimulated monocyte-derived dendritic cells; assay: MoDC assay, LPS-stimulated pro-inflammatory cytokines; format: cell-based, human; conditions: for inhibition of pro-inflammatory cytokines (overall): healthy human donor 14 (FIGS. 9A-9H)
compound,measurement,setting,value
"CN1[C@@H](C(=O)O)CS[C@H]1[C@@H]1CSC(c2ccccc2O)=N1 (single isomer, unassigned) [Compound A-3]",inhibition of Zymosan-induced production of IL-12p40,"[1]; MoDC from healthy human donors 1, 2 and 3, 15.5 nM to 1 μM (FIGS. 6A-6C)",inhibition
same,concentration of maximal inhibition of Zymosan-induced IL-12p40,"[1]; donors 1, 2 and 3, the highest concentration tested",1 µM
same,inhibition of zymosan-induced IL-12p40,"[1]; primary human MoDC from healthy donors 5 and 6, 0.5 μM final concentration (FIGS. 11A, 11B)",does not achieve statistically significant inhibition
same,Activity,Dectin-1b,<30 µM
same,equilibrium ratio of interconversion,[2],about 1.5/1
same,time to nearly reach interconversion equilibrium,[2],about 7 hours
C#CCCC1(CCOC(=O)[C@H]2CSC(C3CSC(c4ccccc4O)=N3)N2C)N=N1 (stereo partly drawn) [Compound D-1],Activity,Dectin-1b,<30 µM
"CN1C([C@H]2CSC(c3ccccc3O)=N2)SC[C@H]1C(=O)O (stereo partly drawn) [Compound I-100, (4R)-2-((R)-2-(2-hydroxyphenyl)-4,5-dihydrothiazol-4-yl)-3-methylthiazolidine-4-carboxylic acid]",inhibition of LPS-induced IRF reporter activity,[3],shows inhibition of LPS-induced IRF reporter activity
same,statistical significance of inhibition of LPS-induced IRF reporter activity,[3]; tested at 1 and 10 μM (FIG. 8A),does not meet statistical significance
same,Gro-α,[4],statistically significant decrease
same,IL-6,[4],statistically significant decrease
same,IL-12p70,[4],statistically significant decrease
same,IL-23,[4],statistically significant decrease
same,IP-10,[4],statistically significant decrease
same,MCP-1,[4],statistically significant decrease
same,Mip-1α,[4],statistically significant decrease
same,TNFα,[4],statistically significant decrease
same,inhibition of pro-inflammatory cytokines (overall),[4],inhibit several pro-inflammatory cytokines; also recorded: inhibition of pro-inflammatory cytokines
same,Gro-α,[5]; healthy human donor 14,statistically significant decrease
same,IL-6,[5]; healthy human donor 14,statistically significant decrease
same,IL-12p70,[5]; healthy human donor 14,statistically significant decrease
same,IL-23,[5]; healthy human donor 14,statistically significant decrease
same,MCP-1,[5]; healthy human donor 14,statistically significant decrease
same,Mip-1α,[5]; healthy human donor 14,statistically significant decrease
same,TNFα,[5]; healthy human donor 14,statistically significant decrease
same,inhibition of pro-inflammatory cytokines (overall),[5],inhibit several pro-inflammatory cytokines; also recorded: inhibition of pro-inflammatory cytokines
"CN1C([C@@H]2CSC(c3ccccc3O)=N2)SC[C@@H]1C(=O)O (stereo partly drawn) [Compound A6, (4S)-2-((S)-2-(2-hydroxyphenyl)-4,5-dihydrothiazol-4-yl)-3-methylthiazolidine-4-carboxylic acid]",inhibition of BGP-induced Dectin-1b reporter gene activity / signaling,"Dectin-1b; HEK-Dectin-1b cells, range from 1 μM to 30 μM",dose-dependent inhibition
same,concentration of maximal inhibition of BGP-induced Dectin-1b activity,"Dectin-1b; range 1 μM to 30 μM, the maximum concentration tested",30 µM
same,inhibition of LPS-induced IRF reporter activity,[3],shows inhibition of LPS-induced IRF reporter activity
same,statistical significance of inhibition of LPS-induced IRF reporter activity,[3]; tested at 1 μM (FIG. 8B),meets statistical significance
same,Gro-α,[4],statistically significant decrease
same,IL-6,[4],statistically significant decrease
same,IL-12p70,[4],statistically significant decrease
same,IL-23,[4],statistically significant decrease
same,IP-10,[4],statistically significant decrease
same,MCP-1,[4],statistically significant decrease
same,Mip-1α,[4],statistically significant decrease
same,TNFα,[4],statistically significant decrease
same,inhibition of pro-inflammatory cytokines (overall),[4],inhibit several pro-inflammatory cytokines; also recorded: inhibition of pro-inflammatory cytokines
same,Gro-α,[5]; healthy human donor 14,statistically significant decrease
same,IL-6,[5]; healthy human donor 14,statistically significant decrease
same,IL-12p70,[5]; healthy human donor 14,statistically significant decrease
same,IL-23,[5]; healthy human donor 14,statistically significant decrease
same,IP-10,[5]; healthy human donor 14,statistically significant decrease
same,MCP-1,[5]; healthy human donor 14,statistically significant decrease
same,Mip-1α,[5]; healthy human donor 14,statistically significant decrease
same,TNFα,[5]; healthy human donor 14,statistically significant decrease
same,inhibition of pro-inflammatory cytokines (overall),[5],inhibit several pro-inflammatory cytokines; also recorded: inhibition of pro-inflammatory cytokines
"CN1C(C2CSC(c3ccccc3O)=N2)SC[C@@H]1C(=O)O (stereo partly drawn) [Compound A-1, (4S)-2-(2-(2-hydroxyphenyl)-4,5-dihydrothiazol-4-yl)-3-methylthiazolidine-4-carboxylic acid]",Activity,Dectin-1b,<30 µM
C#CCCC1(CCNC(=O)[C@H]2CSC(C3CSC(c4ccccc4O)=N3)N2C)N=N1 (some centres unmarked) [Compound C-1],Activity,Dectin-1b,<30 µM
"C#CCCC1(CCNC(=O)[C@H]2CS[C@@H]([C@@H]3CSC(c4ccccc4O)=N3)N2C)N=N1 [Compound C-3, (2S,4S)—N-(2-(3-(but-3-yn-1-yl)-3H-diazirin-3-yl)ethyl)-2-((S)-2-(2-hydroxyphenyl)-4,5-dihydrothiazol-4-yl)-3-methylthiazolidine-4-carboxamide]",Activity,Dectin-1b,<30 µM
"C#CCCC1(CCNC(=O)[C@H]2CS[C@H]([C@@H]3CSC(c4ccccc4O)=N3)N2C)N=N1 [Compound C-2, (4S)—N-[2-(3-but-3-ynyldiazirin-3-yl)ethyl]-2-[(4S)-2-(2-hydroxyphenyl)-4,5-dihydrothiazol-4-yl]-3-methyl-thiazolidine-4-carboxamide]",Activity,Dectin-1b,<30 µM
"CN1[C@@H](C(=O)O)CS[C@H]1[C@H]1CSC(c2ccccc2)=N1 (single isomer, unassigned) [Compound F-2]",Activity,Dectin-1b,<30 µM
"CN1C(C2CSC(c3ccccc3O)=N2)SC[C@]1(C)C(=O)O (stereo partly drawn) [Compound B-1, (4S)-2-(2-(2-hydroxyphenyl)-4,5-dihydrothiazol-4-yl)-3,4-dimethylthiazolidine-4-carboxylic acid]",Activity,[1]; MoDC assay,<30 µM
same,Activity,Dectin-1b,<30 µM
"C[C@]1(C(=O)O)CSC(C2CSC(c3ccccc3O)=N2)N1 (stereo partly drawn) [Compound E-1, (4S)-2-(2-(2-hydroxyphenyl)-4,5-dihydrothiazol-4-yl)-4-methyl-thiazolidine-4-carboxylic acid]",Activity,Dectin-1b,<30 µM

# Reference: US20250197388A1, “COMPOUNDS, PHARMACEUTICAL COMPOSITIONS AND METHODS FOR TREATING INFLAMMATORY BOWEL DISEASE” (FLAGSHIP PIONEERING INNOVATIONS VI, LLC, priority 2022, published 2025)
